Experimental data taken from a compilation of properties of binary mixtures (doi:10.1016/j.jct.2020.106150).

Assay: xn = mol fraction of the nth substance listed
Settings: 100 kPa

O=Cc1ccco1 + CCCC[P+](C)(CCCC)CCCC.COS(=O)(=O)[O-]
Settings | speed of sound [m/s] | viscosity [mPa·s]
293.15 K, x2 = 0 | 1459.1 | 1.62
293.15 K, x2 = 0.062 | 1482.3 | 2.5
293.15 K, x2 = 0.142 | 1505.9 | 21.3
293.15 K, x2 = 0.249 | 1527 | 65
293.15 K, x2 = 0.317 | 1541.2 | 95
293.15 K, x2 = 0.399 | 1556.3 | 134
293.15 K, x2 = 0.499 | 1563.9 | 190
293.15 K, x2 = 0.732 | 1568.5 | 400
293.15 K, x2 = 0.823 | 1566.1 | 500
293.15 K, x2 = 0.863 | 1565.4 | 560
293.15 K, x2 = 0.91 | 1563.4 | 610
293.15 K, x2 = 0.951 | 1563.1 | 660
298.15 K, x2 = 0 | 1440.2 | 1.48
298.15 K, x2 = 0.142 | 1489.6 | 10.1
298.15 K, x2 = 0.191 | 1499.2 | 17.1
298.15 K, x2 = 0.249 | 1511.1 | 31
298.15 K, x2 = 0.317 | 1525.5 | 47
298.15 K, x2 = 0.399 | 1540.4 | 72
298.15 K, x2 = 0.499 | 1548.6 | 101
298.15 K, x2 = 0.624 | 1555.2 | 160
298.15 K, x2 = 0.732 | 1552.5 | 270
298.15 K, x2 = 0.823 | 1550.2 | 350
298.15 K, x2 = 0.863 | 1549.3 | 390
298.15 K, x2 = 0.91 | 1547.2 | 440
298.15 K, x2 = 0.951 | 1546.2 | 480
303.15 K, x2 = 0 | 1422 | 1.36
303.15 K, x2 = 0.062 | 1454.5 | 2.14
303.15 K, x2 = 0.1 | 1463 | 3.1
303.15 K, x2 = 0.142 | 1472.1 | 4.1
303.15 K, x2 = 0.249 | 1493.1 | 8.7
303.15 K, x2 = 0.317 | 1508.5 | 25
303.15 K, x2 = 0.399 | 1524.3 | 40
303.15 K, x2 = 0.499 | 1534.6 | 55
303.15 K, x2 = 0.624 | 1539.8 | 93
303.15 K, x2 = 0.823 | 1533.5 | 260
303.15 K, x2 = 0.863 | 1532.5 | 290
303.15 K, x2 = 0.91 | 1531.2 | 320
303.15 K, x2 = 0.951 | 1530.1 | 350
308.15 K, x2 = 0 | 1403.8 | 1.26
308.15 K, x2 = 0.062 | 1434 | 1.99
308.15 K, x2 = 0.1 | 1443.5 | 3
308.15 K, x2 = 0.191 | 1466.5 | 5.6
308.15 K, x2 = 0.249 | 1476.3 | 7.7
308.15 K, x2 = 0.399 | 1508.3 | 20.4
308.15 K, x2 = 0.499 | 1515.9 | 34
308.15 K, x2 = 0.732 | 1521.5 | 133
308.15 K, x2 = 0.823 | 1519.8 | 194
308.15 K, x2 = 0.863 | 1517.1 | 217
308.15 K, x2 = 0.91 | 1516.5 | 241
308.15 K, x2 = 0.951 | 1515.5 | 270
313.15 K, x2 = 0.062 | 1418.8 | 1.76
313.15 K, x2 = 0.142 | 1438.3 | 3.6
313.15 K, x2 = 0.191 | 1449 | 5.6
313.15 K, x2 = 0.249 | 1459.5 | 6.7
313.15 K, x2 = 0.317 | 1475.5 | 8.8
313.15 K, x2 = 0.399 | 1492.4 | 11.5
313.15 K, x2 = 0.499 | 1501.5 | 17.9
313.15 K, x2 = 0.624 | 1509.5 | 43
313.15 K, x2 = 0.732 | 1505.7 | 101
313.15 K, x2 = 0.823 | 1504.6 | 146
313.15 K, x2 = 0.863 | 1502.3 | 165
313.15 K, x2 = 0.91 | 1500.7 | 185
313.15 K, x2 = 0.951 | 1500.5 | 201
318.15 K, x2 = 0 | 1367.8 | 1.09
318.15 K, x2 = 0.1 | 1410.1 | 2.5
318.15 K, x2 = 0.191 | 1431.3 | 4.3
318.15 K, x2 = 0.317 | 1457.6 | 7
318.15 K, x2 = 0.399 | 1476.4 | 9.9
318.15 K, x2 = 0.624 | 1494.6 | 32
318.15 K, x2 = 0.732 | 1493.4 | 81
318.15 K, x2 = 0.823 | 1489.6 | 116
318.15 K, x2 = 0.863 | 1488.6 | 130
318.15 K, x2 = 0.91 | 1488.2 | 144
318.15 K, x2 = 0.951 | 1486.5 | 158
323.15 K, x2 = 0 | 1349.9 | 1.02
323.15 K, x2 = 0.062 | 1386 | 1.53
323.15 K, x2 = 0.1 | 1394.5 | 2.3
323.15 K, x2 = 0.142 | 1402.1 | 3.3
323.15 K, x2 = 0.317 | 1443.6 | 6
323.15 K, x2 = 0.399 | 1460.6 | 8.6
323.15 K, x2 = 0.499 | 1469.8 | 18.6
323.15 K, x2 = 0.624 | 1479.9 | 27
323.15 K, x2 = 0.732 | 1479.9 | 73
323.15 K, x2 = 0.823 | 1478.2 | 99
323.15 K, x2 = 0.863 | 1477.2 | 110
323.15 K, x2 = 0.91 | 1476.1 | 117
323.15 K, x2 = 0.951 | 1474.6 | 126
